System: primary CLL cells
Assay: Leukemia cell viability and apoptosis by DiOC6(3)/PI staining and flow cytometry
Format: cell-based, human
Protocol: Cell viability and apoptosis were evaluated by double-staining with the mitochondrial inner transmembrane potential (ΔΨm)-sensitive dye DiOC6(3) (3,3'-dihexyloxacarbocyanine iodide; Sigma-Aldrich) and the exclusion dye propidium iodide (PI; Immunostep), allowing identification of apoptotic [DiOC6(3)^low PI^-] and dead [PI^+] cells as per Proc. Natl. Acad. Sci. U.S.A. (2014) 111(8):3020-3025 and Methods Mol. Biol. (2016) 1419:1-16. Briefly, PBMCs were resuspended in culture medium containing 20 nM DiOC6(3) and incubated for 30 minutes at 37 °C. Then, PI (1 µg/mL) was added and cells were further incubated for 10 minutes at room temperature (RT). Cells were analyzed by flow cytometry considering DiOC6(3)^+PI^- cells as viable. In some experiments, apoptosis was evaluated by staining with Annexin V/PI. Thus, PBMCs were incubated in Annexin V binding buffer containing 5 µg/mL Annexin V-FITC (Biolegend) for 15 minutes at RT and PI (1 µg/mL) was subsequently added. Data were normalized to the untreated control as a percentage. Only samples with at least 60% of viable cells (DiOC6(3)^+; Annexin V^-) in the control (DMSO) condition were employed in this study.
The in vitro cytotoxic activity of EC-7072 against primary CLL cells was assessed by: • (i) incubating PBMCs isolated from patients with CLL (n = 13) following treatment with increasing concentrations of EC-7072 (0 - 400 nM) for 24 hours. Numbers of leukemia cells were evaluated by flow cytometry and normalized to their respective control (DMSO) condition for each individual patient to obtain percentage of leukemia cells (Figure 1A); • (ii) incubating PBMCs from patients with CLL (n = 10) with or without EC-7072 (100-400 nM) for 24 hours. Viability of leukemia cells was determined by cytofluorometric assessment of DiOC6(3)/PI staining and normalized to their respective control condition to obtain percentage viability (Figure 1B); • (iii) incubating PBMCs from patients with CLL (n = 10) with increasing concentrations of EC-7072 (0 - 400 nM) for 24 hours. Apoptosis of leukemia cells was determined by DiOC6(3)/PI staining and flow cytometry to obtain the mean percentages of apoptotic [DiOC6(3)^low PI^-] and dead [PI^+] cells (Figure 1C); • (iv) incubating PBMCs from patients with CLL (n = 10) with or without EC-7072 (200 nM) for 12 to 72 hours. Viability of leukemia cells was determined by DiOC6(3)/PI staining and normalized to their respective control condition to obtain percentage viability (Figure 1D); • (v) incubating PBMCs from patients with CLL (n = 24) with MTA (200 nM) or EC-7072 (200 nM) for 24 hours. Leukemia cell death was determined by DiOC6(3)/PI staining and flow cytometry to obtain the mean percentages of apoptotic [DiOC6(3)^low PI^-] and dead [PI^+] cells (Figure 1E); • (vi) incubating PBMCs from patients with CLL (n = 63) or healthy donors (n = 20) with or without EC-7072 (200 nM) for 24 hours. Viability of leukemia cells and healthy B cells was evaluated by DiOC6(3)/PI staining and normalized to their respective control condition to obtain percentage viability (Figure 1F); • (vii) incubating PBMCs from patients with CLL (n = 62) following treatment with EC-7072 (200 nM) for 24 hours and obtaining a cytogenetic profile for each patient. Viability of leukemia cells was evaluated by DiOC6(3)/PI staining and normalized to their respective control (DMSO) condition for each individual patient to obtain the percentage of viable [DiOC6(3)^+] cells (Figure 1G); • (viii) incubating PBMCs from patients with CLL (n = 59) following treatment with EC-7072 (200 nM) for 24 hours and determining mutational status of IgHV for each patient. Viability of leukemia cells was evaluated by DiOC6(3)/PI staining and normalized to their respective control (DMSO) condition for each individual patient to obtain the percentage of viable [DiOC6(3)^+] cells (Figure 1H). […]

CO[C@@H]([C@@H]1Cc2cc3cc(O[C@H]4C[C@@H](O[C@H]5C[C@@H](O)[C@H](O)[C@@H](C)O5)[C@H](O)[C@@H](C)O4)c(C)c(O)c3c(O)c2C(=O)[C@H]1O[C@H]1C[C@@H](O[C@H]2C[C@@H](O[C@H]3C[C@](C)(O)[C@H](O)[C@@H](C)O3)[C@@H](O)[C@@H](C)O2)[C@H](O)[C@@H](C)O1)[C@@H](O)C(C)=O [EC-7072, mithramycin SK]
cell death at 6 hours (200 nM, 6 hours, PBMCs from patients with CLL (n = 8), Figure 6C): not triggering detectable cell death | CLL cell death at 8 hours (200 nM, 8 hours, n = 8, Figure 7K): does not result in noticeable CLL cell death | ratio of apoptosis in CLL cells relative to CLL cell death (200 nM, 24 hours, PBMCs from patients with CLL (n = 6), exception: EC-14041, Figure 2P): higher ratio of apoptosis in CLL cells relative to CLL cell death than other mithralogs | antileukemic activity (apoptotic [DiOC6(3)^low PI^-] and dead [PI^+] cells) (200 nM, 24 hours, PBMCs from patients with CLL (n = 24), compared with MTA 200 nM, Figure 1E): comparable to that of MTA | antileukemic activity on isolated leukemia cells versus PBMCs (apoptotic and dead cells) (200 nM, 24 hours, isolated leukemia cells from patients with CLL (n = 24)): mimicked | viability of leukemia cells by mutational status of IgHV (200 nM, 24 hours, n = 59, Figure 1H): did not significantly affect the sensitivity | viability of leukemia cells by cytogenetic profile (200 nM, 24 hours, n = 62, patients with cytogenetic aberrations incl. del(17p) or del(11q), Figure 1G): no differences in the sensitivity | viability of leukemia cells (100 - 400 nM for 24 hours, 200 nM for 12 to 72 hours, PBMCs from patients with CLL (n = 10), dose- and time-dependent, Figures 1B-1D): significantly decreased | leukemia cell survival upon BCR stimulation with anti-IgM antibodies (EC-7072 200 nM in combination with α-IgM (10 µg/mL), 24 hours, n = 15): significantly rescued leukemia cell survival | leukemia cell death in the presence of microenvironment-derived soluble factors (EC-7072 200 nM with CD40L (100 ng/mL), BAFF (50 ng/mL), TNF-α (40 ng/mL), IL-6 (40 ng/mL) or IL-4 (40 ng/mL), 24 hours, n = 7): none of the soluble factors tested significantly affected the leukemia cell death | leukemia cell viability in co-culture with OP9 stromal cells (co-culture with OP9 cells 72 hours, EC-7072 200 nM for the last 24 hours, n = 7): did not enhance leukemia cell viability | percentage viability of leukemia cells, comparison of mithralogs (each at 200 nM, 24 hours, PBMCs from patients with CLL (n = 10), Figure 2M): second only to the mithralog EC-7073 | CLL cell viability compared with idelalisib or fludarabine (range of doses, EC-7072 and fludarabine 24 hours, idelalisib 48 hours, n = 4 - 6, Figure 4A): reduced CLL cell viability to a greater extent than idelalisib or fludarabine
